Reference: patent US10213449B2, “Compositions and methods for treating medulloblastoma” (The Board of Trustees of the Leland Stanford Junior …, priority 2016, dated 2019)
Entries after “also recorded” stand apart in the source; their conditions may differ.

Legend:
[1] = system: Gli2 binding at Gli target genes in GNPs; test: H3K27ac and Gli2 Chipseq in GNPs purified from TBB-injected P7 mice; type: in vivo, mouse; conditions: two injections of TBB (30 mg/kg) over 18 h
Procedure: Brd4 occupancy at both Gli1 and Gli2 promoters was blocked by the addition of TBB (FIG. 3e). Given that Brd4's primary role as a reader of H3K27ac histone modifications, whether the effect of TBB on Gli target genes correlated with H3K27ac in GNP on a genome-wide scale was next examined. GNPs were purified from P7 mice following two injections of TBB over an 18 h period. Chipseq using H3K27ac and Gli2 antibodies were performed and Gli target genes were binned into either ‘high’ or low H3K27ac′ groups. […] For example, Gli1 had low H3K27ac in GNPs but high H3K27ac in NIH 3T3's. In contrast, Gli2 and Ptch both had high H3K27ac marks in both GNPs and NIH 3T3's.
Wildtype CD1-Elite (Charles River strain 482) P7 mice were randomized to control or treatment groups then given two injections of DMSO (control) or TBB (30 mg/kg) q12h×2. Mice were sacrificed and GNPs were isolated as described in “GNP isolation”. Chomatin immunoprecipitation was performed as previously described. GNPs were cross-linked in 1% formaldehyde for 10 minutes at RT then fixation was stopped by adding 2.5M glycine for 10 minutes. […] ChIP and input DNA was quantified using Qubit DS DNA HS assay as per manufacturer's protocol (ThermoFisher Q32851). […] Library was quantified via Qubit DS DNA HS assay and library quality was determined using an Agilent 2100 Bioanalyzer. […]

[2] = system: Hh signaling in Sufu−/− mouse embryonic fibroblasts; test: RT-qPCR of Gli1 in Sufu−/− MEFs (epistasis study); type: cell-based
From the text: Epistasis studies were next performed to determine where in the hedgehog pathway CK2 acts. The effect of TBB was examined: (i) in NIH 3T3s stimulated with SAG, a SMO agonist, (ii) in Sufu−/− mouse embryonic fibroblasts (MEF), and (iii) in NIH 3T3 cells overexpressing GLI2 (FIG. 3d-3f).
Sufu^−/− MEFs (conditional deletion of exons 4-8) were kindly provided by Pao-Tien Chang (UCSF). SAG (S7779), GDC-0449 (Vismodegib, S1082) and CX-4945 (Silmitasertib, S2248) was purchased from SelleckChem.com. TBB was purchased from EMD (218697). Shh-N conditional medium was made using a HEK 293 cell line that stably secretes ShhN as previously described. Myc-GL12-DN (17649, pCS2-MT-GLI2-deltaN) plasmid was purchased from Addgene (Cambridge, Mass., USA). […]
NIH3T3s or SUFU−/− MEFs were plated in 6 well plates at 400,000 cells/well in 10% FBS media constituted of DMEM (Invitrogen11960-069) supplemented with 10% FBS (Hyclone Labs SH30070.02), pen/strep (Life Technologies 15140-122), sodium pyruvate (Invitrogen 11360-070) and glutamax (Invitrogen 35050-061). […] RNA was quantified on a nanodrop spectrophotometer (nanoddrop technologies ND-2000C). Transcript quantification was performed using a TaqMan RNA-to-Ct 1-Step Kit (Life technologies, 4392656) and the Applied Biosystems 7500 RT-PCR system as per the manufacturer's instructions. […]

In the case of `Brc1c(Br)c(Br)c2[nH]nnc2c1Br` [TBB, 4,5,6,7-tetrabromo-2H-benzotriazole], the “Gli binding at 'high' H3K27ac marked Gli target genes compared to low H3K27ac marked genes” value [1] is reported as “statistically significant decrease” and the “Gli1 mRNA / Gli transcript levels” value [2] is reported as “substantially decreased; also recorded: dose dependent loss of Gli1 expression”.
